Test results: patent US20120053148A1, “INHIBITORS OF HEPATITIS C VIRUS” (GILEAD SCIENCES, INC., priority 2010, published 2012)
Where two headings read alike, the source gives them in different places.

Test system: HCV Replicon IB
Experiment: HCV replicon assay in Huh-7 cells, genotype 1b (Rluc luciferase readout)
Type: cell-based, hepatitis C virus
Conditions: for EC50: read-out: EC50_HCV1B_; for inhibition at 10 µM: read-out: Inhibition @ 10 uM in 1b-Rluc
[1] = Hepatitis C virus, Huh-7, 72 h, HCV1B replicon, Huh-7 cells, 3 days
[2] = Hepatitis C virus, 72 h, 10 uM, 1b-Rluc replicon, Huh-7 cells, 3 days
[3] = HCV1B replicon, Huh-7 cells, 3 days

CCOP(=O)(CNc1nnc(-c2cc(C)c3cc(OCC(F)(F)F)cc(C(C)(C)C)c3n2)o1)OCC [Compound 460]
EC50 (Hepatitis C virus, Huh-7, 72 h): 388 nM

Cc1cc(-c2nnc(NC3CC(C)(O)C3)o2)nc2c(C(C)(C)C)cc(OCC(F)(F)F)cc12 (centres unmarked) [Compound 466]
EC50 [1]: 0.88 nM

Cc1cc(-c2nnc(Nc3ccccc3)[nH]2)nc2c(C(F)(F)F)cc(C3CC3)cc12 [Compound 272]
inhibition at 10 µM [2]: 93.6%

Cc1cc(C(=O)NCC2CC2)nc2c(C(F)(F)F)cc(C3CC3)cc12 [Compound 102]
inhibition at 10 µM [2]: 99.7%

Cc1cc(C(=O)NCC2COCCN2)nc2c(C(F)(F)F)cc(C3CC3)cc12 (centres unmarked) [Compound 100]
inhibition at 10 µM [2]: 99.5%

CCCCNc1nnc(-c2cc(C)c3cc(OC)cc(C(F)(F)F)c3n2)o1 [Compound 273]
inhibition at 10 µM [2]: 100%

Cc1cc(-c2nnc(N[C@H]3CC[C@@H](O)CC3)o2)nc2c(C(C)(C)C)cc(OCC(F)(F)F)cc12 [Compound 498]
EC50 [1]: 2.39 nM

Cc1cc(-c2nnc(NCC3CC(F)(F)CN3)s2)nc2c(C(F)(F)F)cc(C3CC3)cc12 (centres unmarked) [Compound 310]
EC50 [1]: 1570 nM

COc1cc(C(F)(F)F)c2nc(-c3nnc(NCC(=O)N(C)C)o3)cc(C)c2c1 [Compound 279]
inhibition at 10 µM [2]: 98.4%

O=C(NCc1ccccn1)c1cc(Cl)c2cc(C3CC3)cc(OC(F)(F)F)c2n1 [Compound 233]
inhibition at 10 µM [2]: 100%

CCC(CNC(=O)c1cc(N)c2cc(OC(F)F)cc(C(F)(F)F)c2n1)=NOC [Compound 316]
EC50 [1]: 61.8 nM

Cc1cc(C(=O)NCc2ccccn2)nc2c(C(F)(F)F)cc(C3(C)CC3)cc12 [Compound 138]
inhibition at 10 µM [2]: 99%

CC(C)(C)c1cc(C2CC2)cc2c(N)cc(-c3nnc(NCCCO)s3)nc12 [Compound 384]
EC50 [1]: 3.66 nM

Cc1cc(-c2nnc(N[C@H]3C[C@](O)(C(F)S(=O)(=O)c4ccccc4)C3)o2)nc2c(C(C)(C)C)cc(OCC(F)(F)F)cc12 (some centres unmarked) [Compound 481]
EC50 [1]: 2880 nM

CCC(O)CNC(=O)c1cc(N)c2cc(C3CC3)cc(C(C)(C)C)c2n1 (centres unmarked) [Compound 326]
EC50 [1]: 13.8 nM

Cc1cc(-c2nnc(NCC3CC(F)(F)CN3)s2)nc2c(C(C)(C)C)cc(C3CC3)cc12 (centres unmarked) [Compound 381]
EC50 [1]: 2930 nM

CC(C)(C)c1cc(C2CC2)cc2c(N)cc(-c3nnc(NC4CCCC4)o3)nc12 [Compound 348]
EC50 [1]: 5.27 nM

CCOCCOCCOCCCNc1nnc(-c2cc(C)c3cc(C4CC4)cc(C(F)(F)F)c3n2)s1 [Compound 293]
inhibition at 10 µM [2]: 96%

Cc1cc(-c2nnc(N[C@H]3C[C@@H](O)C3)o2)nc2c(C(C)(C)C)cc(OCCF)cc12 [Compound 535]
EC50 [1]: 2.54 nM

COCCCNC(=O)c1cc(C)c2cc(C3CC3)cc(C(F)(F)F)c2n1 [Compound 120]
inhibition at 10 µM [2]: 99.8%

CCCNc1nnc(-c2cc(C)c3cc(C4CC4)cc(C(F)(F)F)c3n2)o1 [Compound 387]
EC50 [1]: 3.3 nM

Cc1cc(C(=O)NCc2cccc(F)n2)nc2c(C(F)(F)F)cc(C3CC3)cc12 [Compound 80]
inhibition at 10 µM [2]: 99.8%

Cc1cc(-c2nnc(NC3CCC(O)(CF)C3)o2)nc2c(C(C)(C)C)cc(OCC(F)(F)F)cc12 (centres unmarked) [Compound 489]
EC50 [1]: 26.7 nM

Cc1cc(C(=O)NCc2cnccn2)nc2c(-c3ccccc3)cc(C3CC3)cc12 [Compound 549]
EC50 [1]: 65.5 nM

Cc1cc(C(=O)NC[C@@H]2CC3(CN2)OCCO3)nc2c(C(F)(F)F)cc(OCC(F)(F)F)cc12 [Compound 511]
EC50 [1]: 32.3 nM

Cc1cc(-c2nnc(N[C@@H]3CCOC3)o2)nc2c(C(C)(C)C)cc(OCC(F)(F)F)cc12 [Compound 450]
EC50 [1]: 3.15 nM

COC(C)(C)c1cc(C2CC2)cc2c(C)cc(-c3nnc(NCC4OCCO4)o3)nc12 [Compound 545]
EC50 [1]: 7.68 nM

Cc1cc(C(=O)NCC(O)c2ccccc2)nc2c(C(F)(F)F)cc(-c3ccccc3)cc12 (centres unmarked) [Compound 168]
inhibition at 10 µM [2]: 86.4%

C=Cc1cc(C(F)(F)F)c2nc(C(=O)NCc3ccccn3)cc(C)c2c1 [Compound 152]
inhibition at 10 µM (Hepatitis C virus, Huh-7, 72 h): 99.9%

COCCNc1nnc(-c2cc(C)c3cc(OC)cc(C(F)(F)F)c3n2)o1 [Compound 275]
inhibition at 10 µM [2]: 99.7%

C=C(C)c1cc(C(F)(F)F)c2nc(C(=O)NCc3ccccn3)cc(C)c2c1 [Compound 156]
inhibition at 10 µM [2]: 99.6%

Cc1cc(-c2nnc(N[C@H]3C[C@](O)(CF)C3)o2)nc2c(C(C)(C)C)cc(OC(F)F)cc12 [Compound 527]
EC50 [1]: 0.81 nM

Cc1cc(C(=O)NCc2cc(C#N)ccn2)nc2c(C(F)(F)F)cc(C3CC3)cc12 [Compound 110]
inhibition at 10 µM [2]: 99.9%

C#Cc1cc(OC(F)(F)F)cc2c(Cl)cc(C(=O)NCc3ccccn3)nc12 [Compound 238]
inhibition at 10 µM [2]: 9.91%

Cc1cc(C(=O)NC[C@@H]2CSCN2)nc2c(C(C)(C)C)cc(C3CC3)cc12 [Compound 427]
EC50 [1]: 7.44 nM

Cc1cc(-c2nnc(Nc3ccccc3)o2)nc2c(C(F)(F)F)cc(C3CC3)cc12 [Compound 242]
inhibition at 10 µM [2]: 100%

Cc1cc(-c2nnc(NCC3OCCO3)o2)nc2c(OC(F)(F)F)cc(OCC(F)(F)F)cc12 [Compound 539]
EC50 [1]: 4.12 nM

Cc1cc(C(=O)NCc2cc(C(F)(F)F)ccn2)nc2c(C(F)(F)F)cc(C3CC3)cc12 [Compound 86]
inhibition at 10 µM [2]: 100%

Cc1cc(-c2nnc(NCCCN3CCCCC3)o2)nc2c(C(F)(F)F)cc(C3CC3)cc12 [Compound 256]
inhibition at 10 µM [2]: 99.4%

Cc1cc(-c2nnc(NCCCS(C)(=O)=O)o2)nc2c(C(F)(F)F)cc(C3CC3)cc12 [Compound 269]
inhibition at 10 µM [2]: 87.4%

Cc1cc(-c2nnc(NCC3OCCO3)o2)nc2c(C(C)(C)C)cc(OCC(F)(F)C(F)(F)F)cc12 [Compound 523]
EC50 [1]: 233 nM

CC(=O)c1cc(C2CC2)cc2c(C)cc(-c3nnc(NCC4OCCO4)o3)nc12 [Compound 541]
EC50 [1]: 18.6 nM

O=C(NCc1ccccn1)c1cc(Cl)c2cc(OC(F)F)cc(C(F)(F)F)c2n1 [Compound 194]
inhibition at 10 µM [2]: 99.5%

Cc1cc(C(=O)Nc2cn[nH]c2)nc2c(OC(F)(F)F)cc(C3CC3)cc12 [Compound 439]
EC50 [1]: 1160 nM

CCc1cc(C(F)(F)F)c2nc(C(=O)NCc3ccccn3)cc(C)c2c1 [Compound 158]
inhibition at 10 µM [2]: 98.9%

CC(C)(C)c1cc(C2CC2)cc2c(N)cc(C(=O)NC[C@H]3CS(=O)(=O)CCN3)nc12 [Compound 335]
EC50 [1]: 3.02 nM

CC(C)(C)c1cc(C2CC2)cc2c(O)cc(C(=O)NCc3ccccn3)nc12 [Compound 227]
inhibition at 10 µM [2]: 100%

Cc1cc(C(=O)NCC2(C)OCCO2)nc2c(C(F)(F)F)cc(C3CC3)cc12 [Compound 98]
inhibition at 10 µM [2]: 98.1%

Cc1cc(C(=O)NCc2ccccn2)nc2c(C(F)(F)F)cc(C#CC3CC3)cc12 [Compound 147]
inhibition at 10 µM [2]: 94.1%

Cc1cc(-c2nnc(N[C@H]3CC[C@@](C)(O)CC3)o2)nc2c(C(C)(C)C)cc(OCC(F)(F)F)cc12 [Compound 496]
EC50 [3]: 13.7 nM

Cc1cc(C(=O)NCc2ccccn2)nc2c(C(F)(F)F)cc(C3=CCCC3)cc12 [Compound 149]
inhibition at 10 µM [2]: 99.4%

CNCCCNc1nnc(-c2cc(C)c3cc(C4CC4)cc(C(F)(F)F)c3n2)s1 [Compound 300]
inhibition at 10 µM [2]: 97.9%

Cc1cc(-c2nnc(Nc3cccc(F)c3)o2)nc2c(C(F)(F)F)cc(C3CC3)cc12 [Compound 271]
inhibition at 10 µM (Hepatitis C virus, Huh-7, 72 h): 100%

Cc1cc(C(=O)NCc2ccccn2)nc2c(C(F)(F)F)cc(C3OC3(C)C)cc12 (centres unmarked) [Compound 141]
inhibition at 10 µM [2]: 94.8%

Cc1cc(-c2nnc(NC3CSC3)o2)nc2c(C(C)(C)C)cc(OCC(F)(F)F)cc12 [Compound 505]
EC50 [1]: 6.25 nM

Cc1cc(C(=O)NCCO)nc2c(C(F)(F)F)cc(-c3ccccc3)cc12 [Compound 166]
inhibition at 10 µM [2]: 93.8%

CC(C)(C)c1cc(C2CC2)cc2c(N)cc(-c3nnc(NCC(F)(F)F)o3)nc12 [Compound 345]
EC50 [1]: 560 nM

CCC(=O)CNC(=O)c1cc(Cl)c2cc(OC(F)F)cc(C(F)(F)F)c2n1 [Compound 205]
inhibition at 10 µM [2]: 99.2%

Cc1cc(-c2nnc(NCCC(C)(C)O)s2)nc2c(C(F)(F)F)cc(C3CC3)cc12 [Compound 295]
inhibition at 10 µM [2]: 98.1%

Cc1cc(-c2nnc(NCC3OCCO3)o2)nc2c(C(C)(C)F)cc(C3CC3)cc12 [Compound 546]
EC50 [1]: 7.48 nM

Cc1cc(C(=O)NCC2CCCCC2)nc2c(C(F)(F)F)cc(-c3ccccc3)cc12 [Compound 172]
inhibition at 10 µM [2]: 95.2%

CCCCCCNc1nnc(-c2cc(C)c3cc(C4CC4)cc(C(F)(F)F)c3n2)o1 [Compound 389]
EC50 [1]: 145 nM

CC(C)=Cc1cc(C(F)(F)F)c2nc(C(=O)NCc3ccccn3)cc(C)c2c1 [Compound 139]
inhibition at 10 µM [2]: 99.7%

Cc1cc(-c2nnc(NCC3OCCO3)o2)nc2c(C(C)(C)C)cc(OCC(F)(F)F)cc12 [Compound 448]
EC50 [1]: 1.57 nM

Cc1cc(-c2nnc(Nc3cn[nH]c3)s2)nc2c(C(F)(F)F)cc(C3CC3)cc12 [Compound 313]
EC50 [1]: 10.2 nM

Cc1cc(C(=O)NCCCO)nc2c(C(F)(F)F)cc(C3CC3)cc12 [Compound 121]
inhibition at 10 µM [2]: 99.2%

Cc1cc(-c2nnc(NCC3OCCS3(=O)=O)o2)nc2c(C(C)(C)C)cc(OCC(F)(F)F)cc12 (centres unmarked) [Compound 483]
EC50 [1]: 1.72 nM

Cc1cc(C(=O)NCc2ccccn2)nc2c(C(F)(F)F)cc(N)cc12 [Compound 178]
inhibition at 10 µM [2]: 86.9%

O=C(NCC1C[S+]([O-])CCN1)c1cc(Cl)c2cc(OC(F)F)cc(C(F)(F)F)c2n1 (centres unmarked) [Compound 196]
inhibition at 10 µM [2]: 55%

Cc1cc(-c2nnc(N[C@H]3C[C@@](O)(CF)C3)o2)nc2c(C(C)(C)C)cc(C3CC3)cc12 [Compound 516]
EC50 [1]: 7.15 nM

Cc1cc(-c2nnc(N(CO)CC3OCCO3)o2)nc2c(C(C)(C)C)cc(C3CC3)cc12 [Compound 404]
EC50 [1]: 2.18 nM

Cc1cc(-c2nnc(NC3CCC(O)(CF)C3)o2)nc2c(C(C)(C)C)cc(OCC(F)(F)F)cc12 (centres unmarked) [Compound 490]
EC50 [3]: 50 nM

COc1cc(C(F)(F)F)c2nc(C(=O)NCc3ccccn3)cc(C)c2c1 [Compound 182]
inhibition at 10 µM [2]: 99.3%

Cc1cc(-c2nnc(N[C@H]3C[S@@+]([O-])C3)o2)nc2c(C(C)(C)C)cc(OCC(F)(F)F)cc12 [Compound 507]
EC50 [1]: 19.1 nM
